# Columns and labels:
# Assay type in all cases: in vivo
# [1] = tested on: barnyardgrass (Echinochloa crus-galli); test: Test A preemergence soil spray, visual injury rating 0-100; conditions: 10 days
# Outline: (§1)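 Greenhouse test: loam/sand pots received a surfactant-containing formulation, as a preemergence directed soil spray or a postemergence spray on young plants. Injury was judged visually at day 10 relative to untreated controls.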
# [2] = tested on: blackgrass (Alopecurus myosuroides); test: as above; conditions: 10 days
# Outline: as §1
# corn (Zea mays) [3] = test: as above; conditions: 10 days
# Outline: as §1
# [4] = tested on: green foxtail (Setaria viridis); test: as above; conditions: 10 days
# Outline: as §1
# kochia (Bassia scoparia) [5] = test: as above; conditions: 10 days
# Outline: as §1
# [6] = tested on: oat, wild (wild oat, Avena fatua); test: as above; conditions: 10 days
# Outline: as §1
# [7] = tested on: palmer (palmer amaranth, palmer pigweed, Amaranthus palmeri); test: as above; conditions: 10 days
# Outline: as §1
# [8] = tested on: ragweed (common ragweed, Ambrosia artemisiifolia); test: as above; conditions: 10 days
# Outline: as §1
# [9] = tested on: ryegrass, Italian (italian ryegrass, Lolium multiflorum); test: as above; conditions: 10 days
# Outline: as §1
# soybean (Glycine max) [10] = test: as above; conditions: 10 days
# Outline: as §1
# [11] = tested on: wheat (Triticum aestivum); test: as above; conditions: 10 days
# Outline: as §1
# [12] = tested on: barnyardgrass (Echinochloa crus-galli); test: Test A postemergence application, visual injury rating 0-100
# Outline: as §1
# [13] = tested on: blackgrass (Alopecurus myosuroides); test: as above
# Outline: as §1
# corn (Zea mays) [14] = test: as above
# Outline: as §1
# [15] = tested on: galium (catchweed bedstraw, Galium aparine); test: as above
# Outline: as §1
# [16] = tested on: green foxtail (Setaria viridis); test: as above
# Outline: as §1
# [17] = tested on: horseweed (Erigeron canadensis); test: as above
# Outline: as §1
# kochia (Bassia scoparia) [18] = test: as above
# Outline: as §1
# [19] = tested on: oat, wild (wild oat, Avena fatua); test: as above
# Outline: as §1
# [20] = tested on: palmer (palmer amaranth, palmer pigweed, Amaranthus palmeri); test: as above
# Outline: as §1
# [21] = tested on: ragweed (common ragweed, Ambrosia artemisiifolia); test: as above
# Outline: as §1
# [22] = tested on: ryegrass, Italian (italian ryegrass, Lolium multiflorum); test: as above
# Outline: as §1
# soybean (Glycine max) [23] = test: as above
# Outline: as §1
# [24] = tested on: wheat (Triticum aestivum); test: as above
# Outline: as §1
# [25] = tested on: barnyardgrass (Echinochloa crusgalli); test: Test B flooded paddy test, visual plant response rating 0-100; conditions: 250 g ai/ha, Flood, applied to paddy water, evaluated after 13 days
# Outline: (§2)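 Paddy-water application: test compounds went directly into water flooded 3 cm above the soil surface, with plants at 2 leaves. After a 13-day greenhouse period, responses were judged by eye relative to controls; a dash marks an untested entry.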
# [26] = tested on: ducksalad (Heteranthera limosa); test: as above; conditions: 250 g ai/ha, Flood, applied to paddy water, evaluated after 13 days
# Outline: as §2
# rice (Oryza sativa) = test: as above; conditions: 250 g ai/ha, Flood, applied to paddy water, evaluated after 13 days
# Outline: as §2
# [27] = tested on: sedge, umbrella (small-flower umbrella sedge, Cyperus difformis); test: as above; conditions: 250 g ai/ha, Flood, applied to paddy water, evaluated after 13 days
# Outline: as §2
# [28] = 62 g ai/ha, 0 = no effect, 100 = complete control
# [29] = 62 g ai/ha, postemergence, 10 days, 0 = no effect, 100 = complete control
# [30] = Postemergence, 16 g ai/ha, greenhouse 10 days, 0 no effect, 100 complete control
smiles,measurement,setting,value
CSCCOC(=O)C1CC(NC(=O)C2(C)CN(c3cc(F)cc(F)c3)C(=O)O2)C1 (racemic) [Compound 120],Barnyardgrass plant response rating,"[1]; 16 g ai/ha, 0 to 100 scale",0
same,Barnyardgrass plant response rating (0-100),[1]; [28],60
same,Blackgrass plant response rating,"[2]; 16 g ai/ha, 0 to 100 scale",40
same,Blackgrass plant response rating (0-100),[2]; [28],80
same,Corn plant response rating,"corn (Zea mays) [3]; 16 g ai/ha, 0 to 100 scale",0
same,Corn plant response rating (0-100),corn (Zea mays) [3]; [28],80
same,"Foxtail, Green plant response rating","[4]; 16 g ai/ha, 0 to 100 scale",20
same,"Foxtail, Green plant response rating (0-100)",[4]; [28],20
same,Kochia plant response rating,"kochia (Bassia scoparia) [5]; 16 g ai/ha, 0 to 100 scale",0
same,Kochia plant response rating (0-100),kochia (Bassia scoparia) [5]; [28],30
same,"Oat, Wild plant response rating","[6]; 16 g ai/ha, 0 to 100 scale",90
same,"Oat, Wild plant response rating (0-100)",[6]; [28],90
same,"Pigweed, Palmer plant response rating","[7]; 16 g ai/ha, 0 to 100 scale",0
same,"Pigweed, Palmer plant response rating (0-100)",[7]; [28],20
same,Ragweed plant response rating,"[8]; 16 g ai/ha, 0 to 100 scale",10
same,Ragweed plant response rating (0-100),[8]; [28],0
same,"Ryegrass, Italian plant response rating","[9]; 16 g ai/ha, 0 to 100 scale",10
same,"Ryegrass, Italian plant response rating (0-100)",[9]; [28],80
same,Soybean plant response rating,"soybean (Glycine max) [10]; 16 g ai/ha, 0 to 100 scale",0
same,Soybean plant response rating (0-100),soybean (Glycine max) [10]; [28],0
same,Wheat plant response rating,"[11]; 16 g ai/ha, 0 to 100 scale",20
same,Wheat plant response rating (0-100),[11]; [28],70
same,Barnyardgrass plant response rating (0-100),[12]; [29],100
same,Barnyardgrass plant response rating (0 to 100 scale),[12]; [30],50
same,Blackgrass plant response rating (0-100),[13]; [29],90
same,Blackgrass plant response rating (0 to 100 scale),[13]; [30],70
same,Corn plant response rating (0-100),corn (Zea mays) [14]; [29],100
same,Corn plant response rating (0 to 100 scale),corn (Zea mays) [14]; [30],90
same,Galium plant response rating (0-100),[15]; [29],70
same,Galium plant response rating (0 to 100 scale),[15]; [30],20
same,"Foxtail, Green plant response rating (0-100)",[16]; [29],90
same,"Foxtail, Green plant response rating (0 to 100 scale)",[16]; [30],60
same,Horseweed plant response rating (0-100),[17]; [29],10
same,Horseweed plant response rating (0 to 100 scale),[17]; [30],10
same,Kochia plant response rating (0-100),kochia (Bassia scoparia) [18]; [29],80
same,Kochia plant response rating (0 to 100 scale),kochia (Bassia scoparia) [18]; [30],0
same,"Oat, Wild plant response rating (0-100)",[19]; [29],80
same,"Oat, Wild plant response rating (0 to 100 scale)",[19]; [30],30
same,"Pigweed, Palmer plant response rating (0-100)",[20]; [29],70
same,"Pigweed, Palmer plant response rating (0 to 100 scale)",[20]; [30],10
same,Ragweed plant response rating (0-100),[21]; [29],40
same,Ragweed plant response rating (0 to 100 scale),[21]; [30],20
same,"Ryegrass, Italian plant response rating (0-100)",[22]; [29],70
same,"Ryegrass, Italian plant response rating (0 to 100 scale)",[22]; [30],10
same,Soybean plant response rating (0-100),soybean (Glycine max) [23]; [29],80
same,Soybean plant response rating (0 to 100 scale),soybean (Glycine max) [23]; [30],50
same,Wheat plant response rating (0-100),[24]; [29],90
same,Wheat plant response rating (0 to 100 scale),[24]; [30],90
same,"Plant response rating, Barnyardgrass (0 to 100 scale, 0 is no effect and 100 is complete control)",[25],0
same,"Plant response rating, Ducksalad (0 to 100 scale, 0 is no effect and 100 is complete control)",[26],0
same,"Plant response rating, Rice (0 to 100 scale, 0 is no effect and 100 is complete control)",rice (Oryza sativa),0
same,"Plant response rating, Sedge, Umbrella (0 to 100 scale, 0 is no effect and 100 is complete control)",[27],0
